How the values were obtained:
Format in all cases: cell-based
BRAF V600E = molecular target: T1, BRAF V600E (Homo sapiens, UniProt P15056, V600E); experiment: BRAF HiBiT degradation assay, C-terminal HiBiT-tagged BRAF V600E A375 cells (clone 1F10), Nano-Glo HiBiT Lytic assay; details: for Dmax: A-375
T1 construct: endogenous C-terminal HiBiT fusion tag on BRAF V600E allele; endogenous in cells; host or cells: A375 clone 1F10 (CRISPR-Cas9 knock-in of the HiBiT tag; parental A375 from ATCC)
Method in brief: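 A375 cells (clone 1F10, endogenous C-terminal HiBiT on BRAF V600E) were seeded at 10,000 cells/well, grown 24 h, then dosed in duplicate with an 11-point series from 1 μM to 0.01 nM (0.2% DMSO). Nano-Glo HiBiT lytic luminescence was normalised to DMSO and wildtype-A375 background; DC50 was read at 50% protein remaining, alongside observed Dmax.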

BRAF D594G = molecular target: T2, BRAF D594G (Homo sapiens, UniProt P15056, D594G); experiment: BRAF HiBiT degradation assay, C-terminal HiBiT-tagged BRAF D594G overexpressed in HCT-116 BRAF−/− cells (clone 63), Nano-Glo HiBiT Lytic assay
T2 construct: Horizon Discovery (HCT-116 BRAF−/− cells); host or cells: HCT-116 BRAF−/− cells, clone 63, lentiviral transduction
Method in brief: (§1)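 HCT-116 BRAF−/− clones stably overexpressing C-terminal HiBiT-tagged mutant BRAF were seeded 24 h before treatment with an 11-point half-log series from 1 μM to 0.01 nM (0.2% DMSO final). Remaining protein was read by HiBiT lytic luminescence, with DMSO and wildtype-cell controls. DC50 was taken as the fitted concentration at 50% remaining protein; observed Dmax is reported relative to DMSO.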

BRAF G466V = molecular target: T3, BRAF G466V (Homo sapiens, UniProt P15056, G466V); experiment: BRAF HiBiT degradation assay, C-terminal HiBiT-tagged BRAF G466V overexpressed in HCT-116 BRAF−/− cells (clone 8), Nano-Glo HiBiT Lytic assay
T3 construct: Horizon Discovery (HCT-116 BRAF−/− cells); host or cells: HCT-116 BRAF−/− cells, clone 8, lentiviral transduction
Method in brief: as §1

BRAF G469A = molecular target: T4, BRAF G469A (Homo sapiens, UniProt P15056, G469A); experiment: BRAF HiBiT degradation assay, C-terminal HiBiT-tagged BRAF G469A overexpressed in HCT-116 BRAF−/− cells (clone 34), Nano-Glo HiBiT Lytic assay
T4 construct: Horizon Discovery (HCT-116 BRAF−/− cells); host or cells: HCT-116 BRAF−/− cells, clone 34, lentiviral transduction
Method in brief: as §1

[1] = A375 (BRAF V600E, Class 1), DC50 at 50% degradation
[2] = A375 (BRAF V600E, Class 1), observed Dmax, % protein degraded relative to DMSO control
[3] = BRAF D594G (Class 3), HCT-116 BRAF−/− cells, DC50 at 50% degradation
[4] = BRAF D594G (Class 3), HCT-116 BRAF−/− cells, observed Dmax relative to DMSO control
[5] = BRAF G466V (Class 3), HCT-116 BRAF−/− cells, DC50 at 50% degradation
[6] = BRAF G466V (Class 3), HCT-116 BRAF−/− cells, observed Dmax relative to DMSO control
[7] = BRAF G469A (Class 2), HCT-116 BRAF−/− cells, DC50 at 50% degradation
[8] = BRAF G469A (Class 2), HCT-116 BRAF−/− cells, observed Dmax relative to DMSO control
[9] = A375 (BRAF V600E), DC50 at 50%: fitted conc. at Y=50
[10] = A375 (BRAF V600E), percentage protein degraded at maximal compound effect relative to DMSO
[11] = BRAF D594G, DC50 at 50%: fitted conc. at Y=50
[12] = HCT-116, BRAF D594G, percentage protein degraded at maximal compound effect relative to DMSO
[13] = BRAF G466V, DC50 at 50%: fitted conc. at Y=50
[14] = HCT-116, BRAF G466V, percentage protein degraded at maximal compound effect relative to DMSO
[15] = Class 2, BRAF G469A, DC50 at 50%: fitted conc. at Y=50
[16] = HCT-116, Class 2, BRAF G469A, percentage protein degraded at maximal compound effect relative to DMSO

T1 sequence (P15056 whole entry V600E, the tested form may be a part): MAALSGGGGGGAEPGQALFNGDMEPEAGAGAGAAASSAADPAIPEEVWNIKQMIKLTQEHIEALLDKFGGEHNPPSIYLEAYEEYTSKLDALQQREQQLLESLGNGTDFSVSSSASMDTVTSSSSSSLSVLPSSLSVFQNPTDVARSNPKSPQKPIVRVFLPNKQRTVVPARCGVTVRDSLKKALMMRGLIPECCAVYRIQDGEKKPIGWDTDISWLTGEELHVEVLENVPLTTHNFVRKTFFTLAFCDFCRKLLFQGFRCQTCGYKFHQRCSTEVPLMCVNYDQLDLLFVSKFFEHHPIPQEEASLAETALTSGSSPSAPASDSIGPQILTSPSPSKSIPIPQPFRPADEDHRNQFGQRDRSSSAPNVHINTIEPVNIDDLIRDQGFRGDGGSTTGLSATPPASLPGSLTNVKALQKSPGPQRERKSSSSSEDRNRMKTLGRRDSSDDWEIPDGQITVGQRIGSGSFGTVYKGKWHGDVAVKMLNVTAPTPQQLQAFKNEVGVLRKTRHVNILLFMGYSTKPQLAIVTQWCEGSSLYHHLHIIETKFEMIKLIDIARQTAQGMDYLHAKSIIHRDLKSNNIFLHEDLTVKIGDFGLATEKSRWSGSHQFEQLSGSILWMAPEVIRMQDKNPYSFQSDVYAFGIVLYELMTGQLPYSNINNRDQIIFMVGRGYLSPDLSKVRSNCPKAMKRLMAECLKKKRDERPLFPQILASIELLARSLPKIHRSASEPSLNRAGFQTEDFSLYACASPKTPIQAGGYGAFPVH
T3 sequence (P15056 whole entry G466V): as the sequence (P15056 whole entry V600E, the tested form may be a part) above, with G466V, E600V counted along it
T4 sequence (P15056 whole entry G469A): as the sequence (P15056 whole entry V600E, the tested form may be a part) above, with G469A, E600V counted along it
T2 sequence (P15056 whole entry D594G): as the sequence (P15056 whole entry V600E, the tested form may be a part) above, with D594G, E600V counted along it

Structure (SMILES) | DC50 (BRAF V600E; [1]) [nM] | Dmax (BRAF V600E; [2]) [%] | DC50 (BRAF D594G; [3]) [nM] | Dmax (BRAF D594G; [4]) [%] | DC50 (BRAF G466V; [5]) [nM] | Dmax (BRAF G466V; [6]) [%] | DC50 (BRAF G469A; [7]) [nM] | Dmax (BRAF G469A; [8]) [%] | DC50 (BRAF V600E; [9]) [nM] | Dmax (BRAF V600E; [10]) [%] | DC50 (BRAF D594G; [11]) [nM] | Dmax (BRAF D594G; [12]) [%] | DC50 (BRAF G466V; [13]) [nM] | Dmax (BRAF G466V; [14]) [%] | DC50 (BRAF G469A; [15]) [nM] | Dmax (BRAF G469A; [16]) [%]
O=C1CC[C@H](c2ccc(N3CCC(CN4CCN(c5ccc(-n6cc(-c7cc(Cl)cc(NS(=O)(=O)N8CC[C@@H](F)C8)c7F)c(-c7ccncc7)n6)c(F)c5)CC4)CC3)cc2)C(=O)N1 [Compound 336, (3R)—N-{5-chloro-3-[1-(4-{4-[(1-{4-[(3R)-2,6-dioxopiperidin-3-yl]phenyl}piperidin-4-yl)methyl]piperazin-1-yl}-2-fluorophenyl)-3-(pyridin-4-yl)-1H-pyrazol-4-yl]-2-fluorophenyl}-3-fluoropyrrolidine-1-sulfonamide] | < 10 | > 70 | < 10 | > 70 | < 10 | > 70 | 10 to 50 | > 70 | – | – | – | – | – | – | – | –
O=C1CC[C@H](c2ccc(N3CCC(CN4CCN(c5ccc(-n6cc(-c7cc(Cl)cc(NS(=O)(=O)N8CC[C@@H](F)C8)c7F)c(-c7ccncc7)n6)cc5F)CC4)CC3)cc2)C(=O)N1 [Compound 367, (3R)—N-{5-chloro-3-[1-(4-{4-[(1-{4-[(3R)-2,6-dioxopiperidin-3-yl]phenyl}piperidin-4-yl)methyl]piperazin-1-yl}-3-fluorophenyl)-3-(pyridin-4-yl)-1H-pyrazol-4-yl]-2-fluorophenyl}-3-fluoropyrrolidine-1-sulfonamide] | < 10 | > 70 | < 10 | > 70 | < 10 | > 70 | < 10 | > 70 | – | – | – | – | – | – | – | –
CCCS(=O)(=O)Nc1cccc(-c2nc(C(C)(C)C)sc2-c2ccnc(N[C@H]3CC[C@@H](N4CCN(C(=O)C5CCN(c6ccc(C7CCC(=O)NC7=O)cn6)CC5)CC4)CC3)n2)c1F (mixture of isomers) [Compound 138, N-{3-[2-tert-butyl-5-(2-{[(1s,4s)-4-[4-(1-{5-[(3RS)-2,6-dioxopiperidin-3-yl]pyridin-2-yl}piperidine-4-carbonyl)piperazin-1-yl]cyclohexyl]amino}pyrimidin-4-yl)-1,3-thiazol-4-yl]-2-fluorophenyl}propane-1-sulfonamide] | – | – | – | – | – | – | – | – | < 10 | > 70 | 10 to 50 | 30 to 70 | < 10 | 30 to 70 | < 10 | 30 to 70
O=C1CCC(c2cc(F)c(N3CCC(CN4CCN(c5ccc(-n6cc(-c7cc(Cl)cc(NS(=O)(=O)N8CCCC8)c7F)c(-c7ccncc7)n6)cc5)CC4)CC3)cc2F)C(=O)N1 (racemic) [Compound 386, Rac-N-{5-chloro-3-[1-(4-{4-[(1-{4-[(3R)-2,6-dioxopiperidin-3-yl]-2,5-difluorophenyl}piperidin-4-yl)methyl]piperazin-1-yl}phenyl)-3-(pyridin-4-yl)-1H-pyrazol-4-yl]-2-fluorophenyl}pyrrolidine-1-sulfonamide] | 10 to 50 | > 70 | 10 to 50 | 30 to 70 | 10 to 50 | > 70 | 50 to 500 | 30 to 70 | – | – | – | – | – | – | – | –
CCCS(=O)(=O)Nc1cccc(-c2cn(C3CCN(C(=O)C4CCN(C(=O)C5CCN(c6ccc(C7CCC(=O)NC7=O)cn6)CC5)CC4)CC3)nc2-c2ccncc2)c1F (racemic) [Compound 7, Rac-N-[3-(1-{1-[1-(1-{5-[(3R)-2,6-dioxopiperidin-3-yl]pyridin-2-yl}piperidine-4-carbonyl)piperidine-4-carbonyl]piperidin-4-yl}-3-(pyridin-4-yl)-1H-pyrazol-4-yl)-2-fluorophenyl]propane-1-sulfonamide] | – | – | – | – | – | – | – | – | 10 to 50 | > 70 | > 500 | 30 to 70 | 50 to 500 | 30 to 70 | > 500 | 30 to 70

Results, then the compound that gave them:

DC50 (BRAF V600E; [1]) [nM] | Dmax (BRAF V600E; [2]) [%] | DC50 (BRAF D594G; [3]) [nM] | Dmax (BRAF D594G; [4]) [%] | DC50 (BRAF G466V; [5]) [nM] | Dmax (BRAF G466V; [6]) [%] | DC50 (BRAF G469A; [7]) [nM] | Dmax (BRAF G469A; [8]) [%] | DC50 (BRAF V600E; [9]) [nM] | Dmax (BRAF V600E; [10]) [%] | DC50 (BRAF D594G; [11]) [nM] | Dmax (BRAF D594G; [12]) [%] | DC50 (BRAF G466V; [13]) [nM] | Dmax (BRAF G466V; [14]) [%] | DC50 (BRAF G469A; [15]) [nM] | Dmax (BRAF G469A; [16]) [%] | Structure (SMILES)
– | – | – | – | – | – | – | – | 10 to 50 | 30 to 70 | > 500 | < 30 | > 500 | < 30 | > 500 | < 30 | CCCS(=O)(=O)Nc1cccc(-c2nc(C(C)(C)C)sc2-c2ccnc(Nc3cccc(C4CCN(CC5CCN(c6ccc7c(=O)n(C8CCC(=O)NC8=O)ccc7c6)CC5)CC4)c3)n2)c1F (racemic) [Compound 76, Rac-N-[3-(2-tert-butyl-5-{2-[(3-{1-[(1-{2-[(3R)-2,6-dioxopiperidin-3-yl]-1-oxo-1,2-dihydroisoquinolin-6-yl}piperidin-4-yl)methyl]piperidin-4-yl}phenyl)amino]pyrimidin-4-yl}-1,3-thiazol-4-yl)-2-fluorophenyl]propane-1-sulfonamide]
– | – | – | – | – | – | – | – | 10 to 50 | > 70 | > 500 | 30 to 70 | > 500 | 30 to 70 | > 500 | 30 to 70 | CCCS(=O)(=O)Nc1cccc(-c2nc(-c3ccc(C4CCN(CC5CCN(c6ccc(C7CCC(=O)NC7=O)cn6)CC5)CC4)cc3)sc2-c2ccnc(N)n2)c1F (racemic) [Compound 208, Rac-N-{3-[5-(2-aminopyrimidin-4-yl)-2-(4-{1-[(1-{5-[(3R)-2,6-dioxopiperidin-3-yl]pyridin-2-yl}piperidin-4-yl)methyl]piperidin-4-yl}phenyl)-1,3-thiazol-4-yl]-2-fluorophenyl}propane-1-sulfonamide]
– | – | – | – | – | – | – | – | 10 to 50 | > 70 | > 500 | 30 to 70 | > 500 | 30 to 70 | > 500 | < 30 | CCCS(=O)(=O)Nc1cccc(-c2nc(C(C)(C)C)sc2-c2ccnc(Nc3ccc(C4CCN(CC[C@H]5CCN(c6ccc(C7CCC(=O)NC7=O)cn6)C5)CC4)cc3)n2)c1F (mixture of isomers) [Compound 173, N-{3-[2-tert-butyl-5-(2-{[4-(1-{2-[(3S)-1-{5-[(3RS)-2,6-dioxopiperidin-3-yl]pyridin-2-yl}pyrrolidin-3-yl]ethyl}piperidin-4-yl)phenyl]amino}pyrimidin-4-yl)-1,3-thiazol-4-yl]-2-fluorophenyl}propane-1-sulfonamide]
– | – | – | – | – | – | – | – | 50 to 500 | 30 to 70 | > 500 | < 30 | > 500 | < 30 | > 500 | < 30 | CCCS(=O)(=O)Nc1cccc(-c2nc(C(C)(C)C)sc2-c2ccnc(NC3CC4(CCN(CC5CCN(c6ccc7c(=O)n(C8CCC(=O)NC8=O)ccc7c6)CC5)CC4)C3)n2)c1F (racemic) [Compound 129, Rac-N-(3-{2-tert-butyl-5-[2-({7-[(1-{2-[(3R)-2,6-dioxopiperidin-3-yl]-1-oxo-1,2-dihydroisoquinolin-6-yl}piperidin-4-yl)methyl]-7-azaspiro[3.5]nonan-2-yl}amino)pyrimidin-4-yl]-1,3-thiazol-4-yl}-2-fluorophenyl)propane-1-sulfonamide]
– | – | – | – | – | – | – | – | 10 to 50 | > 70 | > 500 | 30 to 70 | 10 to 50 | 30 to 70 | > 500 | < 30 | CCCS(=O)(=O)Nc1cccc(-c2cn(-c3ccc(C4CCN(CC5CCN(c6ccc(C7CCC(=O)NC7=O)cn6)CC5)CC4)cc3)nc2-c2ccncc2)c1F (racemic) [Compound 24, Rac-N-{3-[1-(4-{1-[(1-{5-[(3R)-2,6-dioxopiperidin-3-yl]pyridin-2-yl}piperidin-4-yl)methyl]piperidin-4-yl}phenyl)-3-(pyridin-4-yl)-1H-pyrazol-4-yl]-2-fluorophenyl}propane-1-sulfonamide]

Source: US20260317324A1, “BIFUNCTIONAL COMPOUNDS FOR DEGRADING BRAF VIA UBIQUITIN PROTEOSOME PATHWAY” (Nurix Therapeutics, Inc., priority 2023, published 2026)
